# Test results as given in patent US20260256792A1, “TREATMENT OF CHRONIC SPONTANEOUS URTICARIA BY ADMINISTERING (R)-2-[3-[4-AMINO-3-(2-FLUORO-4-PHENOXY-PHENYL)PYRAZOLO[3,4-D]PYRIMIDIN-1-YL]PIPERIDINE-1-CARBONYL]-4-METHYL-4-[4-(OXETAN-3-YL)PIPERAZIN-1-YL]PENT-2-ENENITRILE” (priority 2023, published 2026).
# System: moderate-to-severe chronic spontaneous urticaria (CSU)
# Experiment: Phase 2 CSU study: urticaria activity score over 7 days (UAS7)
# Assay type: in vivo, human
# Set-up: key to UAS7 Median / UAS7 Change from baseline Median / UAS7 change from baseline, Q1 / UAS7 change from baseline, Q3 / UAS7 change from baseline, Max / UAS7 Change from baseline LS Mean (SE): UAS7 points; daily UAS score ranges 0–6 points/day, over 7 days
# Settings: for RRD (%) for rilzabrutinib vs. placebo, UAS7 = 0 / RRD (%) for rilzabrutinib vs. placebo, UAS7 ≤6 / Responder n (%), UAS7 = 0 / Responder n (%), UAS7 ≤6 / Imputed non-responder n (%), UAS7 = 0 / Imputed non-responder n (%), UAS7 ≤6 / Non-responder n (%), UAS7 = 0 / Non-responder n (%), UAS7 ≤6 / OR for rilzabrutinib vs. placebo, UAS7 = 0 / OR for rilzabrutinib vs. placebo, UAS7 ≤6: Omalizumab-naïve, 400 mg TID; for Non-responder, UAS7 reduction from baseline of 10 points or more / OR for rilzabrutinib vs. placebo, UAS7 reduction of 10 points or more / RRD (%) for rilzabrutinib vs. placebo, UAS7 reduction of 10 points or more / Responder, UAS7 reduction from baseline of 10 points or more / UAS7 Change from baseline Mean (SD) / UAS7 Change from baseline Median / UAS7 Mean (SD) / UAS7 Median / UAS7 Percent change from baseline Mean (SD) / UAS7 Percent change from baseline Median: Week 1
# Text: The study comprises a 12 week, randomized, double-blind, placebo-controlled, multi-center, dose-ranging efficacy and safety phase, followed by a 40 week open label extension (OLE) phase (see FIG. 1). The study consists of three phases and an optional OLE phase. […] Clinically, CSU is characterized by the spontaneous and recurrent appearance of pruritic hives. The proposed primary endpoints were the UAS7 at Week 12 in EU and EU reference countries and the ISS7 in the US. Regardless of where a participant was from, all assessments were the same. The UAS7 score is a composite score containing both the HSS7 and the ISS7. This allowed a global assessment of the two key components of urticaria: hives and itch. […] The UAS is a validated PRO measure. […] The daily UAS scores range from 0 to 6 point/day. […] Patients were to complete the UAS using the e-diary. […] The following secondary endpoints were to be analyzed using the same approach as for the primary endpoint: • Change from baseline in UAS7 at Week 4 • Change from baseline in UAS7 at Week 12 (for US and US reference countries) • Change from baseline in ISS7 at Week 12 (except US and US reference countries) • Change from baseline in HSS7 at Week 12 The following responder secondary endpoints were to be analyzed using the Cochran-Mantel-Haenszel test adjusted by region: • Proportion of participants with UAS7<6 at Week 12 • Proportion of participants with UAS7=0 at Week 12 Participants who received selected prohibited medications and/or rescue medications were to be considered as non-responders for time points after the medication usage. For other participants, all available data including those collected during the off-treatment period were to be used to determine the responder/non-responder status. Missing data were to be considered as non-responders.
# [1] = 400 mg BID, Prior Omalizumab Use
# [2] = 400 mg BID, omalizumab-naive participants
# [3] = 400 mg QPM, Prior Omalizumab Use
structure (smiles),measurement,setting,value
"CC(C)(C=C(C#N)C(=O)N1CCC[C@@H](n2nc(-c3ccc(Oc4ccccc4)cc3F)c3c(N)ncnc32)C1)N1CCN(C2COC2)CC1 [rilzabrutinib, (R)-2-[3-[4-amino-3-(2-fluoro-4-phenoxy-phenyl)pyrazolo[3,4-d]pyrimidin-1-yl]piperidine-1-carbonyl]-4-methyl-4-[4-(oxetan-3-yl)piperazin-1-yl]pent-2-enenitrile]","RRD (%) for rilzabrutinib vs. placebo, UAS7 = 0",Week 9,−0.9 %
same,"RRD (%) for rilzabrutinib vs. placebo, UAS7 ≤6",Week 9,16.7 %
same,"Responder n (%), UAS7 = 0",Week 9,3 (8.6) n (%)
same,"Responder n (%), UAS7 ≤6",Week 9,11 (31.4) n (%)
same,"Imputed non-responder n (%), UAS7 = 0",Week 10,5 (14.3) n (%)
same,"Imputed non-responder n (%), UAS7 ≤6",Week 10,5 (14.3) n (%)
same,"Non-responder n (%), UAS7 = 0",Week 10,31 (88.6) n (%)
same,"Non-responder n (%), UAS7 ≤6",Week 10,25 (71.4) n (%)
same,"OR for rilzabrutinib vs. placebo, UAS7 = 0",Week 10,0.819
same,"OR for rilzabrutinib vs. placebo, UAS7 ≤6",Week 10,2.241
same,"RRD (%) for rilzabrutinib vs. placebo, UAS7 = 0",Week 10,−1.7 %
same,"RRD (%) for rilzabrutinib vs. placebo, UAS7 ≤6",Week 10,12.1 %
same,"Responder n (%), UAS7 = 0",Week 10,4 (11.4) n (%)
same,"Responder n (%), UAS7 ≤6",Week 10,10 (28.6) n (%)
same,"Imputed non-responder n (%), UAS7 = 0",Week 11,4 (11.4) n (%)
same,"Imputed non-responder n (%), UAS7 ≤6",Week 11,4 (11.4) n (%)
same,"Non-responder n (%), UAS7 = 0",Week 11,31 (88.6) n (%)
same,"Non-responder n (%), UAS7 ≤6",Week 11,24 (68.6) n (%)
same,"OR for rilzabrutinib vs. placebo, UAS7 = 0",Week 11,1.846
same,"OR for rilzabrutinib vs. placebo, UAS7 ≤6",Week 11,1.971
same,"RRD (%) for rilzabrutinib vs. placebo, UAS7 = 0",Week 11,4.3 %
same,"RRD (%) for rilzabrutinib vs. placebo, UAS7 ≤6",Week 11,11.2 %
same,"Responder n (%), UAS7 = 0",Week 11,4 (11.4) n (%)
same,"Responder n (%), UAS7 ≤6",Week 11,11 (31.4) n (%)
same,"Imputed non-responder n (%), UAS7 = 0",Week 12,8 (22.9) n (%)
same,"Imputed non-responder n (%), UAS7 ≤6",Week 12,8 (22.9) n (%)
same,"Non-responder n (%), UAS7 = 0",Week 12,28 (80.0) n (%)
same,"Non-responder n (%), UAS7 ≤6",Week 12,23 (65.7) n (%)
same,"OR for rilzabrutinib vs. placebo, UAS7 = 0",Week 12,1.800
same,"OR for rilzabrutinib vs. placebo, UAS7 ≤6",Week 12,3.980
same,"RRD (%) for rilzabrutinib vs. placebo, UAS7 = 0",Week 12,6.9 %
same,"RRD (%) for rilzabrutinib vs. placebo, UAS7 ≤6",Week 12,20.3 %
same,"Responder n (%), UAS7 = 0",Week 12,7 (20.0) n (%)
same,"Responder n (%), UAS7 ≤6",Week 12,12 (34.3) n (%)
same,"Non-responder, UAS7 reduction from baseline of 10 points or more","400 mg BID, ITT population",23 (56.1) n (%)
same,"OR for rilzabrutinib vs. placebo, UAS7 reduction of 10 points or more","400 mg BID, ITT population",2.607
same,"RRD (%) for rilzabrutinib vs. placebo, UAS7 reduction of 10 points or more","400 mg BID, ITT population",20.0 %
same,"Responder, UAS7 reduction from baseline of 10 points or more","400 mg BID, ITT population",18 (43.9) n (%)
same,UAS7 Change from baseline Mean (SD),"400 mg BID, Omalizumab-Naïve",−9.96 (8.81)
same,UAS7 Change from baseline Median,"400 mg BID, Omalizumab-Naïve",−9.00
same,UAS7 Mean (SD),"400 mg BID, Omalizumab-Naïve",19.77 (11.32)
same,UAS7 Median,"400 mg BID, Omalizumab-Naïve",21.00
same,UAS7 Percent change from baseline Mean (SD),"400 mg BID, Omalizumab-Naïve",−35.41 (33.69) %
same,UAS7 Percent change from baseline Median,"400 mg BID, Omalizumab-Naïve",−26.19%
same,UAS7 Change from baseline Mean (SD),[1],−11.83 (12.14)
same,UAS7 Change from baseline Median,[1],−7.50
same,UAS7 Median,[1],23.50
same,UAS7 Percent change from baseline Mean (SD),[1],−35.59 (37.55) %
same,UAS7 Percent change from baseline Median,[1],−20.53%
same,"Non-responder, UAS7 reduction from baseline of 10 points or more",[2],19 (54.3) n (%)
same,"OR for rilzabrutinib vs. placebo, UAS7 reduction of 10 points or more",[2],2.862
same,"RRD (%) for rilzabrutinib vs. placebo, UAS7 reduction of 10 points or more",[2],22.3 %
same,"Responder, UAS7 reduction from baseline of 10 points or more",[2],16 (45.7) n (%)
same,"Non-responder, UAS7 reduction from baseline of 10 points or more","400 mg QPM, ITT population",26 (68.4) n (%)
same,"OR for rilzabrutinib vs. placebo, UAS7 reduction of 10 points or more","400 mg QPM, ITT population",1.672
same,"Responder, UAS7 reduction from baseline of 10 points or more","400 mg QPM, ITT population",12 (31.6) n (%)
same,UAS7 Change from baseline Mean (SD),"400 mg QPM, Omalizumab-Naïve",−7.30 (9.14)
same,UAS7 Change from baseline Median,"400 mg QPM, Omalizumab-Naïve",−6.00
same,UAS7 Mean (SD),"400 mg QPM, Omalizumab-Naïve",23.81 (8.78)
same,UAS7 Median,"400 mg QPM, Omalizumab-Naïve",25.00
same,UAS7 Percent change from baseline Mean (SD),"400 mg QPM, Omalizumab-Naïve",−21.72 (26.65) %
same,UAS7 Percent change from baseline Median,"400 mg QPM, Omalizumab-Naïve",−17.95%
same,UAS7 Change from baseline Mean (SD),[3],−16.00 (NC)
same,UAS7 Change from baseline Median,[3],−16.00
same,UAS7 Mean (SD),[3],25.00 (NC)
same,UAS7 Median,[3],25.00
